Key:
[1] = system: Epidermal growth factor receptor (Homo sapiens), P00533 [L858R]; test: Inhibition of human EGFR L858R mutant at 10 uM after 60 mins by TR-FRET assay; type: protein assay; details: values are per cent of control
[2] = system: Epidermal growth factor receptor (Homo sapiens), P00533 [T790M]; test: Inhibition of human EGFR T790M mutant at 10 uM after 60 mins by TR-FRET assay; type: protein assay; details: values are per cent of control
[3] = molecular target: Vascular endothelial growth factor receptor 1 (Homo sapiens) (UniProt P17948); test: Inhibition of human Flt1 at 10 uM after 60 mins by TR-FRET assay; details: values are per cent of control
[4] = molecular target: Mitogen-activated protein kinase 1 (Homo sapiens, UniProt P28482); test: Inhibition of human MAPK2 at 10 uM after 60 mins by TR-FRET assay; details: values are per cent of control
[5] = molecular target: Dual specificity mitogen-activated protein kinase kinase 7 (Homo sapiens) (UniProt O14733); test: Inhibition of human MKK7beta at 10 uM after 60 mins by TR-FRET assay; details: values are per cent of control
Chain of Dual specificity mitogen-activated protein kinase kinase 7 (Homo sapiens) (O14733 whole entry): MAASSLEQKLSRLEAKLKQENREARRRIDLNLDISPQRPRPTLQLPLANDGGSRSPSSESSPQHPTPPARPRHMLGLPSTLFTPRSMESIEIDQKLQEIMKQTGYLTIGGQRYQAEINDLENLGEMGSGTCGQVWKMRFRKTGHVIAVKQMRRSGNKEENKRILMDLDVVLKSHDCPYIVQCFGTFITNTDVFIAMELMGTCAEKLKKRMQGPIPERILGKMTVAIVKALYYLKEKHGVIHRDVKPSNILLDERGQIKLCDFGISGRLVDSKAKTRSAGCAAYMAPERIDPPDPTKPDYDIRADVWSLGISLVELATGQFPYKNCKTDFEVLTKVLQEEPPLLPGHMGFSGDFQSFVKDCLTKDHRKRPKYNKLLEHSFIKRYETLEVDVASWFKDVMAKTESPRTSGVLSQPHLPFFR

[6] = molecular target: Serine/threonine-protein kinase SIK1 (Homo sapiens) (UniProt P57059); test: Inhibition of human SIK at 10 uM after 60 mins by TR-FRET assay; details: values are per cent of control
[7] = molecular target: Tyrosine-protein kinase Fgr (Homo sapiens) (UniProt P09769); test: Inhibition of human Fgr at 10 uM after 60 mins by TR-FRET assay; values are per cent of control
[8] = molecular target: Tyrosine-protein kinase TXK (Homo sapiens) (UniProt P42681); test: Inhibition of human Txk at 10 uM after 60 mins by TR-FRET assay; values are per cent of control
[9] = molecular target: ALK tyrosine kinase receptor (Homo sapiens) (UniProt Q9UM73); test: Inhibition of human ALK at 10 uM after 60 mins by TR-FRET assay; values are per cent of control
Chain of ALK tyrosine kinase receptor (Homo sapiens) (Q9UM73 19-1620 limits assumed): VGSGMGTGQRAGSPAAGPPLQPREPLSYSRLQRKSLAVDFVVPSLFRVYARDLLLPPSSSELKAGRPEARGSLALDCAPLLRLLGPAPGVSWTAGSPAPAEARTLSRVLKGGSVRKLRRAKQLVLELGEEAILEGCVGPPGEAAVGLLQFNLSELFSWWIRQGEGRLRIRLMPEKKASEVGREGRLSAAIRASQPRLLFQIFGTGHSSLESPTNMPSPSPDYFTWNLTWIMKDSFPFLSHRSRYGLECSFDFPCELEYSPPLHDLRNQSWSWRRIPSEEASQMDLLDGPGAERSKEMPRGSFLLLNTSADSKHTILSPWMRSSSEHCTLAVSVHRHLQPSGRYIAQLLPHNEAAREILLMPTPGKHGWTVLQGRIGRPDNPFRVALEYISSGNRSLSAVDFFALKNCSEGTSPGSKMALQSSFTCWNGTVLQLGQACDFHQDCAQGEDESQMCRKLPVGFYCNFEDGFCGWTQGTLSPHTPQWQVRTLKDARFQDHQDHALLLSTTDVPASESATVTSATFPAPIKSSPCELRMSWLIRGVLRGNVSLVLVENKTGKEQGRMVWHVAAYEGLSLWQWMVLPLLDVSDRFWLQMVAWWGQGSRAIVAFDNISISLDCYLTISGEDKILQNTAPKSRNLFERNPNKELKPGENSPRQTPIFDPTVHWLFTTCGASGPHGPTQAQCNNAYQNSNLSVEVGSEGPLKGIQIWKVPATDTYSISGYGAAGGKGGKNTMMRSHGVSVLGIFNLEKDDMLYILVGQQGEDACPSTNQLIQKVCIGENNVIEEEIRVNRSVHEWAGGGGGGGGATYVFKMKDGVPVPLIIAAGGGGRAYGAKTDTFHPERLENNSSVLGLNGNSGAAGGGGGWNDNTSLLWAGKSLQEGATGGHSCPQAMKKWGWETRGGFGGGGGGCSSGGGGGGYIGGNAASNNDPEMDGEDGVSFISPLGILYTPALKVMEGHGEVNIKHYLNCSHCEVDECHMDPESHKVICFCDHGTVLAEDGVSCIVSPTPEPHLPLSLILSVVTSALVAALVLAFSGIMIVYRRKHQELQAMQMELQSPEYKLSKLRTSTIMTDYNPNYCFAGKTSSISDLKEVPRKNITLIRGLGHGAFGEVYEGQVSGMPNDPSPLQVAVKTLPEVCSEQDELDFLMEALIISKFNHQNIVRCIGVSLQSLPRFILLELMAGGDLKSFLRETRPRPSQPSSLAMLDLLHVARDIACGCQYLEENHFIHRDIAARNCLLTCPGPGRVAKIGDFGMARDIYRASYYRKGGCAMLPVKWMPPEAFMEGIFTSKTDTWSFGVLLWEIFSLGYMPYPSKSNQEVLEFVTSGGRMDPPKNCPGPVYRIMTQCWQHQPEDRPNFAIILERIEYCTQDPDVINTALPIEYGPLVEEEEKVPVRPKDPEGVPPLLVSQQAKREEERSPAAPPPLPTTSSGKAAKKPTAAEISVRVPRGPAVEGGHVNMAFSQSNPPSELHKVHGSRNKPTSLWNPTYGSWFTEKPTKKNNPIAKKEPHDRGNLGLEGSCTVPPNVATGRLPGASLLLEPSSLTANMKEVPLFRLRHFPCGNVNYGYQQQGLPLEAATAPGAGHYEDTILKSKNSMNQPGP

Saccharomyces cerevisiae = test: Inhibition of yeast CK1 at 10 uM after 60 mins by TR-FRET assay; values are per cent of control
[10] = molecular target: Proto-oncogene tyrosine-protein kinase receptor Ret (Homo sapiens) (UniProt P07949); test: Inhibition of human Ret at 10 uM after 60 mins by TR-FRET assay; values are per cent of control
Chain of Proto-oncogene tyrosine-protein kinase receptor Ret (Homo sapiens) (P07949 whole entry): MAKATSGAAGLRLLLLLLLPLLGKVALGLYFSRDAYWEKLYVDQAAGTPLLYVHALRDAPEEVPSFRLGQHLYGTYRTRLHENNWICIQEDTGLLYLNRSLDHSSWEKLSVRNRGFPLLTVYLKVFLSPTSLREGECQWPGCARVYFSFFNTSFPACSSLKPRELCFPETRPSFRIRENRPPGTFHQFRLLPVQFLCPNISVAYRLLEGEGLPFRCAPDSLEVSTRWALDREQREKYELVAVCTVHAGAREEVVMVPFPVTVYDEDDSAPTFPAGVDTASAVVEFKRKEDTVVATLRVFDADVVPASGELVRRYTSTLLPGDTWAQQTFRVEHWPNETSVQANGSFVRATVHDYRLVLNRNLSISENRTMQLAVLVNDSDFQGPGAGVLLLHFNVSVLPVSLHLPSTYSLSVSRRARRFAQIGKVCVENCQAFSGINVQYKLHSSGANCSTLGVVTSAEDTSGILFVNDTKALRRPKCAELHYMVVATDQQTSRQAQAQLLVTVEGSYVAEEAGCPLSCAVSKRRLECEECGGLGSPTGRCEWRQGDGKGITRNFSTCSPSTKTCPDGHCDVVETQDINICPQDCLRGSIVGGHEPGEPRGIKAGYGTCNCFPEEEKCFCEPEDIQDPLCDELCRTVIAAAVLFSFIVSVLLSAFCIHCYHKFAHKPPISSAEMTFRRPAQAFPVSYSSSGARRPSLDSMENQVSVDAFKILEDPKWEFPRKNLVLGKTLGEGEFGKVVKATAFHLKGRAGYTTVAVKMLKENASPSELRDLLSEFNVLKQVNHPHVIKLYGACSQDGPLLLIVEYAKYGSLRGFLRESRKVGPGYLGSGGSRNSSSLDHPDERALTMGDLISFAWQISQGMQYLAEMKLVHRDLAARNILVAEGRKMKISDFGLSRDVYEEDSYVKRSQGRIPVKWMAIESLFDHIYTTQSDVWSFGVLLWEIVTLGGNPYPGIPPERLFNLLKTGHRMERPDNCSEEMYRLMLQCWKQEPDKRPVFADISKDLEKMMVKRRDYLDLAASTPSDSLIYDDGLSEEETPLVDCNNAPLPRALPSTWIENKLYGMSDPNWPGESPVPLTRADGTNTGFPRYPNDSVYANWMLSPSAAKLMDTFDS

[11] = molecular target: G protein-coupled receptor kinase 5 (Homo sapiens) (UniProt P34947); test: Inhibition of human GRK5 at 10 uM after 60 mins by TR-FRET assay; values are per cent of control
[12] = molecular target: MAP kinase-interacting serine/threonine-protein kinase 2 (Homo sapiens) (UniProt Q9HBH9); test: Inhibition of human Mnk2 at 10 uM after 60 mins by TR-FRET assay; values are per cent of control
[13] = molecular target: Serine/threonine-protein kinase VRK2 (Homo sapiens) (UniProt Q86Y07); test: Inhibition of human VRK2 at 10 uM after 60 mins by TR-FRET assay; values are per cent of control
Chain of Serine/threonine-protein kinase VRK2 (Homo sapiens) (Q86Y07 whole entry): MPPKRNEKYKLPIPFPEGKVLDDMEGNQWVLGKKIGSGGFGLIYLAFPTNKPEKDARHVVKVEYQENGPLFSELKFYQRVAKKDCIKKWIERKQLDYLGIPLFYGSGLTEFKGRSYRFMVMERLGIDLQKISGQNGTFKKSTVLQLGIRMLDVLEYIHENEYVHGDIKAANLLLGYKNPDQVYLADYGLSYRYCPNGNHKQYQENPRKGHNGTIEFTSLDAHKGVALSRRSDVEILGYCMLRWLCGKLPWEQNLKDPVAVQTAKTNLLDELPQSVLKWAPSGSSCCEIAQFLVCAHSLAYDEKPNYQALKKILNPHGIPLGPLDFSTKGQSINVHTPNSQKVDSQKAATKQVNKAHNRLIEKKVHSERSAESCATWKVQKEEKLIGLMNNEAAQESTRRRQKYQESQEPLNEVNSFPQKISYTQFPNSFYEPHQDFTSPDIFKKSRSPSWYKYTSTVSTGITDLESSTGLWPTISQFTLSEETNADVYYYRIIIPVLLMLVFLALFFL

[14] = molecular target: Activated CDC42 kinase 1 (Homo sapiens) (UniProt Q07912); test: Inhibition of human ACK1 at 10 uM after 60 mins by TR-FRET assay; values are per cent of control
[15] = molecular target: Serine/threonine-protein kinase Chk2 (Homo sapiens) (UniProt O96017); test: Inhibition of human CHK2 at 10 uM after 60 mins by TR-FRET assay; values are per cent of control
[16] = molecular target: Serine/threonine-protein kinase PAK 5 (Homo sapiens) (UniProt Q9P286); test: Inhibition of human PAK5 at 10 uM after 60 mins by TR-FRET assay; values are per cent of control
Chain of Serine/threonine-protein kinase PAK 5 (Homo sapiens) (Q9P286 whole entry, looked up): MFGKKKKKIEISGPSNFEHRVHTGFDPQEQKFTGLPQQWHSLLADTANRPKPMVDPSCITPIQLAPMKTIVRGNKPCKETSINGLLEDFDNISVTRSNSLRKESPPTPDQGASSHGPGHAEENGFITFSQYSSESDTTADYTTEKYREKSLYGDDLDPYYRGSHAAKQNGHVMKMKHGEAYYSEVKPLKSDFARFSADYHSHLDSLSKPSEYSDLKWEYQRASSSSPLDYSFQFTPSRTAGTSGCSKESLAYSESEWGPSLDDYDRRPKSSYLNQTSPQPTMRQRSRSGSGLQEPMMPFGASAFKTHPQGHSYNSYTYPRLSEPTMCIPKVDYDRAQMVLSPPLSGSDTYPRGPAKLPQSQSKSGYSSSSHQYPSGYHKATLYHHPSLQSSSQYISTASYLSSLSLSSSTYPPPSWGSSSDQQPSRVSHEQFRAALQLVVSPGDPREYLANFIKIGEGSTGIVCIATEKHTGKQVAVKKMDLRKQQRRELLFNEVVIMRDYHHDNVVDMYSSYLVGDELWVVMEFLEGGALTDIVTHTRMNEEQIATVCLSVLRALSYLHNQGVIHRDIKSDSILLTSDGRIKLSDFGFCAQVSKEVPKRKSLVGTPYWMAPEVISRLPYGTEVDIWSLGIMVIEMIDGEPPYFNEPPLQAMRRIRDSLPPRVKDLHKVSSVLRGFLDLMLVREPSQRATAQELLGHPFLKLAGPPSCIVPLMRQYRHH

[17] = molecular target: Ephrin type-B receptor 4 (Homo sapiens) (UniProt P54760); test: Inhibition of human EphB4 at 10 uM after 60 mins by TR-FRET assay; values are per cent of control
[18] = molecular target: Fibroblast growth factor receptor 3 (Homo sapiens) (UniProt P22607); test: Inhibition of human FGFR3 at 10 uM after 60 mins by TR-FRET assay; values are per cent of control
[19] = molecular target: Calcium/calmodulin-dependent protein kinase type 1 (Homo sapiens) (UniProt Q14012); test: Inhibition of human CaMK1 at 10 uM after 60 mins by TR-FRET assay; values are per cent of control
[20] = molecular target: Mast/stem cell growth factor receptor Kit (Homo sapiens) (UniProt P10721); test: Inhibition of human c-Kit at 10 uM after 60 mins by TR-FRET assay; values are per cent of control
[21] = molecular target: Serine/threonine-protein kinase pim-3 (Homo sapiens) (UniProt Q86V86); test: Inhibition of human Pim-3 at 10 uM after 60 mins by TR-FRET assay; values are per cent of control
[22] = molecular target: Serine/threonine-protein kinase D1 (Homo sapiens) (UniProt Q15139); test: Inhibition of human PKCmu at 10 uM after 60 mins by TR-FRET assay; values are per cent of control
[23] = molecular target: Protein kinase C iota type (Homo sapiens) (UniProt P41743); test: Inhibition of human PKCiota at 10 uM after 60 mins by TR-FRET assay; values are per cent of control
[24] = molecular target: Protein kinase C beta type (Homo sapiens) (UniProt P05771); test: Inhibition of human PKCbeta2 at 10 uM after 60 mins by TR-FRET assay; values are per cent of control
[25] = molecular target: Calcium/calmodulin-dependent protein kinase type 1D (Homo sapiens) (UniProt Q8IU85); test: Inhibition of human CaMK1delta at 10 uM after 60 mins by TR-FRET assay; values are per cent of control
Chain of Calcium/calmodulin-dependent protein kinase type 1D (Homo sapiens) (Q8IU85 whole entry, looked up): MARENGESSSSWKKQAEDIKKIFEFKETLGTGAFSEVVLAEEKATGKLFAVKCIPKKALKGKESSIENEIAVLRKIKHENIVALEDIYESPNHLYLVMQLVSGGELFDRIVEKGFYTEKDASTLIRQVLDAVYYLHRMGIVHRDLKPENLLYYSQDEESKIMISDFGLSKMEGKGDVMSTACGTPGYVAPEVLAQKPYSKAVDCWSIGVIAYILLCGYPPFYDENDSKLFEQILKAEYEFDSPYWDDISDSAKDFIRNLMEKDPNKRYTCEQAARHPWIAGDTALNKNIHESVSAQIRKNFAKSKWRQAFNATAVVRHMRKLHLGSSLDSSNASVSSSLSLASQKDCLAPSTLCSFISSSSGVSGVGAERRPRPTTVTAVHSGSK

[26] = molecular target: CDK6/cyclin D3 (Homo sapiens) (UniProt P30281+Q00534); test: Inhibition of human CDK6/cyclinD3 at 10 uM after 60 mins by TR-FRET assay; values are per cent of control
[27] = molecular target: CDK9/cyclin T1 (Homo sapiens) (UniProt O60563+P50750); test: Inhibition of human CDK9/cyclin T1 at 10 uM after 60 mins by TR-FRET assay; values are per cent of control
[28] = system: Proto-oncogene tyrosine-protein kinase Src (Homo sapiens), P12931 [T341M]; test: Inhibition of human Src T341M mutant at 10 uM after 60 mins by TR-FRET assay; values are per cent of control

residual activity [1]: 75%
residual activity [2]: 98%
residual activity [3]: 107%
residual activity [4]: 114%
residual activity [5]: 126%
residual activity [6]: 117%
residual activity [7]: 99%
residual activity [8]: 93%
residual activity [9]: 101%
residual activity (Saccharomyces cerevisiae): 90%
residual activity [10]: 108%
residual activity [11]: 115%
residual activity [12]: 112%
residual activity [13]: 122%
residual activity [14]: 103%
residual activity [15]: 116%
residual activity [16]: 101%
residual activity [17]: 108%
residual activity [18]: 109%
residual activity [19]: 105%
residual activity [20]: 108%
residual activity [21]: 99%
residual activity [22]: 104%
residual activity [23]: 98%
residual activity [24]: 105%
residual activity [25]: 104%
residual activity [26]: 102%
residual activity [27]: 110%
residual activity [28]: 113%
Structure (SMILES): S=c1[nH]nc(-c2ccncc2)n1-c1ccc2ccccc2c1

— ChEMBL document CHEMBL1641539 (Bioorg Med Chem Lett, 2011)
